In patent publication US20200254065A1, “LONG-ACTING GLP-2 ANALOGS” (OPKO Biologics Ltd., priority 2019, published 2020):
Marks after values point to notes of the source that are not given here. Square brackets hold non-standard residues; d marks the D form. Ends that are not written are not given here. Peptide text beside a SMILES is read from it. Nle = CCCC[C@H](N)C(=O)O

How the values were obtained:
[1] = tested on: intestine epithelium (crypts plus villi); assay: Crypts plus villi length, histopathology of small intestine; assay type: in vivo, SD rats; settings: for Percent increase of Crypts plus Villi length over vehicle (FIG. 1): injected once at 2 mg/kg peptide dose, 6th day
Procedure: In addition to PEG30-FMS-V4 and PEG30-Fmoc-V4 that have been pharmacology evaluated by small intestinal weight evaluation (As shown in Example 5), four other reversible PEGylated variant 4 (“V4”) conjugates and two reversible linker-V4 conjugates were synthesized. All the above were injected to 6 normal SD rats/group once at 2 mg/kg (peptide dose), while on the 6th day, animals were scarified, and the small intestine was weighted followed by histopathology evaluation. […] Therefore, slices from three areas of the intestine (duodenum, jejunum and ilium) were stained with hematoxylin and eosin and at least 7 Crypts+Villi length/slice were measured. The averaged Villi+Crypt length of each treatment group (n=6) was compared to the vehicle group (negative control) and calculated as percentage increase over vehicle. […]
An additional study to evaluate the efficacy and the longevity of V4 and Cys-FMS-V4 was conducted (Study reference 15204) in which the animals were sacrificed on Days 6 (N=6), 10 (N=4) and 14 (N=4). This experiment measured the pharmacological response compared to the commercially approved SBS treatment drug Gattex. In addition, two new conjugates were tested by conjugating V4 to reduced OSu-linker and Cys-FMS-V4 purified from resin. The animals were injected with a single SC injection at Day 1 with 2 mg/kg peptide content of V4, Cys-FMS-V4, FMS-OSu-V4, Apraglutide and Glepaglutide while Gattex was SC injected daily at 2.5 mg/kg peptide content. […]

GLP-2 receptor [2] = molecular target: T1, GLP-2 receptor (Homo sapiens, UniProt O95838); assay: GLP-2 receptor Cell Based Assay (CBA)
T1 sequence (O95838 1-553): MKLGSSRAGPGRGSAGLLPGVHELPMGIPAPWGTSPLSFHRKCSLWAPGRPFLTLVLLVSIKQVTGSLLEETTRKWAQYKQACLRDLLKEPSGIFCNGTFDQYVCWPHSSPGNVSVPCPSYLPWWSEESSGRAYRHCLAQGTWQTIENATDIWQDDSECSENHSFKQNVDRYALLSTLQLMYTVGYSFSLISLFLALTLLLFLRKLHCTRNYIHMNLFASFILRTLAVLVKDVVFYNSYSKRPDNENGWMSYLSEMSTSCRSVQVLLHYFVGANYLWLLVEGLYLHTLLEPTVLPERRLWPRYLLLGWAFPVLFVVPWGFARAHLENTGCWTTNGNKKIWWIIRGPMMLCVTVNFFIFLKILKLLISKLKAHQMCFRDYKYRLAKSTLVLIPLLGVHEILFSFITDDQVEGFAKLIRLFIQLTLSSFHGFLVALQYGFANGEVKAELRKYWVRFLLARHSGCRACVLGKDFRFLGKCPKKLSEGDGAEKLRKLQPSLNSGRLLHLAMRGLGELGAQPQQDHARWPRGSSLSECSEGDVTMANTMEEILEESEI
Procedure: Evaluation of in vitro binding affinity of the different peptides was assessed by using Cell Based Assay (CBA) in the presence of escalating doses of the different peptides.

small intestine = assay: Intestine weight model in rats; assay type: in vivo, SD rats; settings: for Avg. small intestine weight (gr) / Small intestine weight increase over vehicle (%): normal SD rats, injected once at 2 mg/kg peptide dose, 6th day; for Small intestine weight increase over vehicle (%): MAL-FMS-V4 compared to Vehicle 2
Procedure: In the pharmacology study, the conjugates were injected subcutaneously twice, on days 1 and 3 at 1 mg/kg (peptide dose) and intestine weight was performed on day 6. In addition to the PEGylated conjugates, GLP-2-Gly2 was injected at the same dose and regimen for comparison. The average of the intestine weight of each group was compared to that of the vehicle group.
In a different study, several of the PEGylated teduglutide were injected as a single dose at 1 mg/kg and the intestine weight performed on day 6.
Pharmacology and pharmacokinetic studies were performed with the most promising GLP-2 variants to evaluate their efficacy and longevity, respectively. The intestine weight model in rats was conducted to evaluate efficacy, by measuring percent increase of the intestine weight of treated animals over the vehicle group. In this study, the peptides were injected twice, on days 1 and 3 at 1 mg/kg and the intestine weight was conducted on day 6.
PEG20-FMS-V6, PEG20-Fmoc-V6 and PEG40-FMS-V6 were injected once at 1 mg/kg dose on day 1, while group D was also injected twice on days 1 & 3 at 1 mg/kg. The intestine weight was performed on day 6.
Three different reversible PEGylated GLP-2 variants using mutated peptide #4 were injected at 2 mg/kg (peptide dose), once every 6 days for 12 days. On the 12th day the intestine was weighted and compared to the control group. PEG30-FMS-V4 was injected at 0.5 mg/kg as well to evaluate the efficacy dose range.
In addition to PEG30-FMS-V4 and PEG30-Fmoc-V4 that have been pharmacology evaluated by small intestinal weight evaluation (As shown in Example 5), four other reversible PEGylated variant 4 (“V4”) conjugates and two reversible linker-V4 conjugates were synthesized. All the above were injected to 6 normal SD rats/group once at 2 mg/kg (peptide dose), while on the 6th day, animals were scarified, and the small intestine was weighted followed by histopathology evaluation. […] Therefore, slices from three areas of the intestine (duodenum, jejunum and ilium) were stained with hematoxylin and eosin and at least 7 Crypts+Villi length/slice were measured. The averaged Villi+Crypt length of each treatment group (n=6) was compared to the vehicle group (negative control) and calculated as percentage increase over vehicle.
Additional studies were conducted to evaluate the efficacy of the V4 peptide and the reversible MAL-FMS-V4. The long acting effect of V4 and the conjugates were evaluated at Day 6 and Day 10 following treatment (Study reference 15203). All test groups (n=9) were injected SC with 2 mg/kg peptide content at Day 1. At Days 6 and 10, animals were sacrificed and the small intestine underwent histopathology evaluation (6 animals for Day 6, 3 animals for Day 10). FIGS. 12 and 13 show the pharmacology effect of different V4 conjugates and Apraglutide and Glepaglutide as measured by the percent increase of small intestine weight and crypts plus villi length over vehicle, respectively.
To further evaluate the pharmacology efficacy of V4 and Cys-FMS-V4, an experiment was performed to test their acute and prolonged effect on the small intestine (Study reference 15205). In addition, V4 and Cys-FMS-V4 were administrated as a single SC injection on Day 1 at 3 different doses (0.5, 2.0 or 8.0 mg/kg peptide content, 6 rats per group) to assess the dose dependence effect. The pharmacological effect on small intestine weight and villi plus crypts length was measured at Days 3, 7 and 14, and the results are presented in FIGS. 15 and 16. […] It should be noted that this acute response was higher for V4 compared to Cys-FMS-V4 at all 3 dose levels.

[3] = Pharmacokinetics of modified GLP-2 variants in rats; assay type: in vivo; settings: rat, serum, peptide dose 15 mg/kg
[4] = Stability of GLP-2 analogues on incubation at 37° C. (appearance, O.D. reading, RP-HPLC); assay type: physicochemical; settings: following 48 h incubation at 37° C.
Procedure: The GLP-2 analogues were tested for stability via appearance, O.D. reading (A.280, and A.325) and RP-HPLC (purity, and peak area) following t=0, 1 day, and 48 h incubation at 37° C.

GLP-2 receptor [5] = molecular target: T2, GLP-2 receptor (UniProt O95838 1-553, limits assumed); assay: cell-based or functional assay
T2 sequence (looked up): T1 sequence (O95838 1-553)

GLP-2 receptor [6] = molecular target: GLP-2 receptor (UniProt O95838); assay: cell-based or functional assay
[7] = Table 8, average of 3 independent CBA
[8] = 2 mg/kg peptide dose once every 6 days for 12 days, weighed on 12th day

For `CCCC[C@H](NC(=O)[C@H](CCC(=O)O)NC(=O)[C@H](CC(=O)O)NC(=O)[C@H](CO)NC(=O)[C@H](Cc1ccccc1)NC(=O)[C@H](CO)NC(=O)CNC(=O)[C@H](CC(=O)O)NC(=O)CNC(=O)[C@@H](N)Cc1c[nH]cn1)C(=O)N[C@H](Cc1ccccc1)C(=O)N[C@H](C(=O)N[C@H](C(=O)N[C@@H](CC(C)C)C(=O)N[C@@H](CC(=O)O)C(=O)N[C@@H](CC(C)C)C(=O)N[C@@H](CC(C)C)C(=O)N[C@@H](C)C(=O)N[C@@H](C)C(=O)N[C@@H](CCCNC(=N)N)C(=O)N[C@@H](CC(=O)O)C(=O)N[C@@H](Cc1ccccc1)C(=O)N[C@H](C(=O)N[C@@H](CC(N)=O)C(=O)N[C@@H](Cc1c[nH]c2ccccc12)C(=O)N[C@@H](CC(C)C)C(=O)N[C@H](C(=O)N[C@@H](CCC(N)=O)C(=O)N[C@H](C(=O)N[C@@H](CCCCN)C(=O)N[C@H](C(=O)N[C@H](C(=O)N[C@@H](CC(=O)O)C(N)=O)[C@@H](C)O)[C@@H](C)CC)[C@@H](C)O)[C@@H](C)CC)[C@@H](C)CC)[C@@H](C)CC)[C@@H](C)O` [Variant 1, reference compound] (H-HGDGSFSDE[Nle][dF]TILDLLAARDFINWLIQTKITD-NH2), the “Crypts plus villi length percent increase over vehicle (FIG. 13)” value ([1]; Study 15203, single SC 2 mg/kg on Day 1, Days 6 and 10) was “moderate effect that was higher than Glepaglutide and the PEG30-FMS-V4 conjugate”, the “EC50 Ratio to Teduglutide” value (GLP-2 receptor [2]; [7]) was 2.9 and the “EC50 Ratio to Variant 4” value (GLP-2 receptor [2]; [7]) was 1.6.

With `CCCC[C@H](NC(=O)[C@H](CCC(=O)O)NC(=O)[C@H](CC(=O)O)NC(=O)[C@H](CO)NC(=O)[C@H](Cc1ccccc1)NC(=O)[C@H](CO)NC(=O)CNC(=O)[C@H](CCC(=O)O)NC(=O)CNC(=O)[C@@H](N)Cc1c[nH]cn1)C(=O)N[C@H](Cc1c[nH]cn1)C(=O)N[C@H](C(=O)N[C@H](C(=O)N[C@@H](CC(C)C)C(=O)N[C@@H](CC(=O)O)C(=O)N[C@@H](CC(N)=O)C(=O)N[C@@H](CC(C)C)C(=O)N[C@@H](C)C(=O)N[C@@H](C)C(=O)N[C@@H](CCCNC(=N)N)C(=O)N[C@@H](CC(=O)O)C(=O)N[C@@H](Cc1ccccc1)C(=O)N[C@H](C(=O)N[C@@H](CC(N)=O)C(=O)N[C@@H](Cc1c[nH]c2ccccc12)C(=O)N[C@@H](CC(C)C)C(=O)N[C@H](C(=O)N[C@@H](CCC(N)=O)C(=O)N[C@H](C(=O)N[C@@H](CCCCN)C(=O)N[C@H](C(=O)N[C@H](C(=O)N[C@@H](CC(=O)O)C(N)=O)[C@@H](C)O)[C@@H](C)CC)[C@@H](C)O)[C@@H](C)CC)[C@@H](C)CC)[C@@H](C)CC)[C@@H](C)O` [Variant 3] (H-HGEGSFSDE[Nle][dH]TILDNLAARDFINWLIQTKITD-NH2) the “Increase of intestine weight over vehicle (%)” value (small intestine; modified peptides, two injections on days 1 & 3 at 1 mg/kg, intestine weight on day 6) was 4%, the half-life [3] was 1.9 h and the Solubility via appearance [4] was “V3: clear”. The “Stability via RP-HPLC main peak” value ([4]; change of main peak) was “V3: −4%” and the “EC50 Ratio to Teduglutide” value (GLP-2 receptor [2]; Table 7) was 2.5.

GLP2 DiscoverX Kit (peptide) gave an EC50 (nM) Average, GLP2-receptor CBA, 3 independent assays (GLP-2 receptor [5]) of 0.8 nM, an EC50 Ratio to Teduglutide, CBA (GLP-2 receptor [5]) of 1.8 fold and an EC50 Ratio to Teduglutide, GLP2-receptor CBA (GLP-2 receptor [5]) of 1.3 fold. The EC50 Ratio to Variant 4, GLP2-receptor CBA (GLP-2 receptor [5]) was 0.7 fold and the EC50 [nM], Cell Based Assay (CBA), cells overexpressing the GLP-2 receptor (GLP-2 receptor [5]) was 10.1 nM.

In the case of “MAL-FMS-V4 (HGEGSFSDE[Nle]NTILDLLAARDFINWLIQTKITD-NH2; also: MAL-FMS conjugate, place not given here)”, the “Avg. small intestine weight (gr)” value (small intestine) is reported as 7.0 gr, the “Percent increase of Crypts+Villi length over vehicle (FIG. 3)” value ([1]; Study 15201, 0.5 and 2 mg/kg peptide dose once, 6 days after injection) is reported as “dose dependent pharmacology effect on the intestine epithelium” and the “Percent increase of Crypts plus Villi length over vehicle (FIG. 1)” value (“Percent increase … (FIG. 1)” for short) [1] is reported as “showed the most pronounce effect on the intestine epithelium”.

For “PEG30-Fmoc-V4 (HGEGSFSDE[Nle]NTILDLLAARDFINWLIQTKITD-NH2; also: PEG30-Fmoc conjugate, place not given here)”, the “Average Intestine weight (gr)” value (small intestine; [8]) was 7.8 gr, the “Increase of intestine weight over vehicle (%)” value (small intestine; [8]) was 29% and the “Avg. small intestine weight (gr)” value (small intestine) was 7.0 gr. The “Small intestine weight increase over vehicle (%)” value (small intestine) was 36.0** % and the “Percent increase … (FIG. 1)” value [1] was “better effect on the intestine epithelium than the V4 peptide”.

For “PEG30-MeOF-V4 (HGEGSFSDE[Nle]NTILDLLAARDFINWLIQTKITD-NH2; also: PEG30-MeOF conjugate, place not given here)”, the “Avg. small intestine weight (gr)” value (small intestine) was 7.0 gr, the “Small intestine weight increase over vehicle (%)” value (small intestine) was 39.0** % and the “Percent increase … (FIG. 1)” value [1] was “better effect on the intestine epithelium than the V4 peptide”.

B1: Apraglutide (V1) (peptide)
peptide: HGDGSFSDE[Nle][dF]TILDLLAARDFINWLIQTKITD-NH2
B1 showed an EC50 (nM) Average, GLP2-receptor CBA, 3 independent assays (GLP-2 receptor [6]) of 1.7 nM, an EC50 Ratio to Teduglutide, GLP2-receptor CBA (GLP-2 receptor [6]) of 2.9 fold and an EC50 Ratio to Variant 4, GLP2-receptor CBA (GLP-2 receptor [6]) of 1.6 fold.

B2: Glepaglutide (V10) (peptide)
peptide: HGEGTFSSELATILDALAARDFIAWLIATKITDKKKKKK-NH2
Work on B2 yielded an EC50 (nM) Average, GLP2-receptor CBA, 3 independent assays (GLP-2 receptor [6]) of 5.4 nM, an EC50 Ratio to Teduglutide, GLP2-receptor CBA (GLP-2 receptor [6]) of 9.4 fold and an EC50 Ratio to Variant 4, GLP2-receptor CBA (GLP-2 receptor [6]) of 5.3 fold.
